Legend:
[1] = tested on: Rosacea patients with moderate to severe persistent facial erythema; test: Erythema study, Clinician Erythema Assessment (CEA) in rosacea patients; format: in vivo, human
From the text: Rosacea patients with moderate to severe persistent facial erythema are selected for treatment. The erythema is graded according to the Clinician Erythema Assessment (CEA) scale with photonumeric guide. It has a five-point scale: 0: clear skin with no signs of erythema; 1: almost clear, slight redness; 2: mild erythema, definite redness; 3: moderate erythema, marked redness; 4: severe erythema, fiery redness. Patients with CEA […] are enrolled in the study.
The study is double-masked. There are 5 treatment groups for 5 cream formulations (vehicle, 0.2% nintedanib, 0.3% brimonidine, combo-1 [0.2% nintedanib and 0.3% brimonidine], and combo-2 [0.1% nintedanib and 0.15% brimonidine]) to be tested and each group will have about 20 patients. The patients are assigned to the groups in a way to make sure the base line average grade is similar among the groups. The formulations are dosed once daily for 4 weeks and the patients are further followed up for 8 weeks. The drug is administered by a physician on the first day of visit and then self-administered by the patient for the remaining 4 weeks. Patients are evaluated on day 1, week 2 and 4 during dosing. After the stop of dosing, patients are further followed up at week 8 and 12.
The effect on erythema is evaluated by taking pictures of the face. […] The tolerability of the formulations is also evaluated by assessing treatment related adverse events. The efficacy and tolerability data are analyzed by independent statisticians.

[2] = tested on: pterygium patients (pterygium vascularity); test: Phase 2a clinical trial of nintedanib eye drop in pterygium patients; format: in vivo, human
Method: Nintedanib was formulated into an eye drop and tested in pterygium patients in a Phase 2a clinical trial to evaluate the safety and efficacy of nintedanib. The key efficacy endpoint is effects on pterygium vascularity.
The clinic trial was conducted in two stages. In stage 1, the safety, tolerability and pharmacokinetics were evaluated in a single dose escalating study. Three dose cohorts with 8 patients in each were evaluated. Cohort 1 began at the lowest concentration of 0.02% nintedanib (weight percent based on the total weight of the eye drop), followed by an increasing dose to 0.05% for Cohort 2 and then to 0.2% for Cohort 3.
In stage 2, the safety, tolerability and efficacy of the 0.2% formulation were evaluated in a randomized, double-masked, vehicle-controlled, parallel study with 28 days TID repeat ocular dosing of vehicle and 0.2% nintedanib. The patients were further followed up by 20 weeks of post-dosing observation. Ophthalmic and physical examinations were performed at screening, Day 1 and Week 2, 4, 8, 16, and 24. External photograph of the pterygium eye was taken using a digital camera and the pterygium vascularity was graded from these images at an independent image reading center. The primary objective is to evaluate ocular and systemic safety of nintedanib in pterygium patients that have moderate to severe pterygium vascularity. […]

[3] = day 1 after dosing, cream formulations
[4] = week 1, 2 and 4, during dosing, cream once daily

COC(=O)c1ccc2c(c1)NC(=O)/C2=C(\Nc1ccc(N(C)C(=O)CN2CCN(C)CC2)cc1)c1ccccc1 [Nintedanib, (Z)-3-(1-(4-(N-((4-methyl-piperazin-1-yl)-methylcarbonyl)-N-methyl-amino)-phenylamino)-1-phenyl-methylene]-6-methoxycarbonyl-2-indolinone]
erythema grade after stop of treatment ([1]; after stop of dosing at week 4, week 8 and 12): remains lower than the baseline | erythema grade reduction from baseline [1, 3]: does not change | erythema grade reduction from baseline [1, 4]: about 1 grade | safety and tolerability (stage 2) ([2]; 0.2% eye drop TID 28 days, 20 weeks post-dosing observation): excellent with no serious adverse events | safety, single dose escalating study (stage 1) ([2]; eye drop 0.02%, 0.05% and 0.2%, single dose, 8 patients per cohort): No safety issues

Brc1c(NC2=NCCN2)ccc2nccnc12 [brimonidine, (5-bromoquinoxalin-6-yl)-(4,5-dihydro-1H-imidazol-2-yl)-amine]
erythema grade reduction from baseline [1, 3]: about 1 grade | erythema grade reduction from baseline [1, 4]: reduction remains | erythema grade versus baseline after stop of treatment ([1]; week 8): slightly higher than baseline | erythema grade versus baseline after stop of treatment ([1]; week 12): returns to the baseline

Source: patent publication US11179388B2, “Topical composition for treating rosacea and a method for treating rosacea with the same” (ADS THERAPEUTICS LLC, priority 2017, dated 2021)
